Results published in patent US10947254B2, “Methods for treating ulcerative colitis using 3-((1R,3s,5S)-3-((7-((5-methyl-1H-pyrazol-3-yl)amino)-1,6-naphthyridin-5-yl)amino)-8-azabicyclo[3.2.1]octan-8-yl)propanenitrile” (priority 2015, dated 2021).

Legend:
JAK3 = JAK3 (Homo sapiens (Human), UniProt P52333); experiment: Biochemical JAK assay (LanthaScreen), JAK3
Protocol: (§1) Assay 1: Biochemical JAK and Off-Target Kinase Assays
(§2) A panel of four LanthaScreen JAK biochemical assays (JAK1, 2, 3 and Tyk2) were carried in a common kinase reaction buffer (50 mM HEPES, pH 7.5, 0.01% Brij-35, 10 mM MgCl2, and 1 mM EGTA). Recombinant GST-tagged JAK enzymes and a GFP-tagged STAT1 peptide substrate were obtained from Life Technologies.
Serially diluted compounds were pre-incubated with each of the four JAK enzymes and the substrate in white 384-well microplates (Corning) at ambient temperature for 1 h. ATP was subsequently added to initiate the kinase reactions in 10 μL total volume, with 1% DMSO. […] The plates were allowed to incubate at ambient temperature for 1 h before being read on the EnVision reader (Perkin Elmer).
(§3) Results were expressed as pIC50 (negative logarithm of IC50) and subsequently converted to pKi (negative logarithm of dissociation constant, Ki) using the Cheng-Prusoff equation.

JAK1 = JAK1 (Homo sapiens (Human), UniProt P23458); format: biochemical
JAK1, sequence (P23458 whole entry): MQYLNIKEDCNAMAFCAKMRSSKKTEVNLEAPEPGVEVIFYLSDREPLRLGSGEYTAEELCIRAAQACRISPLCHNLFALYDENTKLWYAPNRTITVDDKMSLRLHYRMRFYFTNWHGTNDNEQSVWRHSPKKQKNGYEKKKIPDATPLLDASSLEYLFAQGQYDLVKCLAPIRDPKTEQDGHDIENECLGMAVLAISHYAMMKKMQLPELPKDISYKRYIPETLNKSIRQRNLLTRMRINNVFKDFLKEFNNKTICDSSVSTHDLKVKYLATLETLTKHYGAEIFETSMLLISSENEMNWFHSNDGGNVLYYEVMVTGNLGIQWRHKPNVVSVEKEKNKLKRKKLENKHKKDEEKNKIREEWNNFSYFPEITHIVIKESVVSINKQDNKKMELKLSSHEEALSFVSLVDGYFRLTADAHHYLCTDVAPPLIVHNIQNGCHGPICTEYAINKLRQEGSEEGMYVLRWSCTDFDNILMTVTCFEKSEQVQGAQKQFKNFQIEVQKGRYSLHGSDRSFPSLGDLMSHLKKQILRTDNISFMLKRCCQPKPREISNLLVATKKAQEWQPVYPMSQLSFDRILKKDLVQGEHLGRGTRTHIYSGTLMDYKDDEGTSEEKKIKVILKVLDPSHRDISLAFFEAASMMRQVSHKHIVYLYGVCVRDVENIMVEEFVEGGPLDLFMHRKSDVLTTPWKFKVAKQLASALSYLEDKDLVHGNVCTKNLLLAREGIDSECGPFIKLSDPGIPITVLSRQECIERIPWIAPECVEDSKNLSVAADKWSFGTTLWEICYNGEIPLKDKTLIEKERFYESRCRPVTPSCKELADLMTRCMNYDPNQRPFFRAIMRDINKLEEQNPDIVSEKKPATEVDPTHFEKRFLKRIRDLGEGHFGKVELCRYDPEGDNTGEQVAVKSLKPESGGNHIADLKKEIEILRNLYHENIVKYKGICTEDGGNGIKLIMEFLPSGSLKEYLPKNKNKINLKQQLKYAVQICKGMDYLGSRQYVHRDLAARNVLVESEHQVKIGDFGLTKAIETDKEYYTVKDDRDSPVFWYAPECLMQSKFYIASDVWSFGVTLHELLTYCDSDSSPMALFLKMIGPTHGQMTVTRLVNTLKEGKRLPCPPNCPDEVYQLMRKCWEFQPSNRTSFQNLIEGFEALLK
Protocol: as §1, §2
(§4) Serially diluted compounds were pre-incubated with each of the four JAK enzymes and the substrate in white 384-well microplates (Corning) at ambient temperature for 1 h. ATP was subsequently added to initiate the kinase reactions in 10 μL total volume, with 1% DMSO. […] Kinase reactions were allowed to proceed for 1 hour at ambient temperature before a 10 μL preparation of EDTA (10 mM final concentration) and Tb-anti-pSTAT1 (pTyr701) antibody (Life Technologies, 2 nM final concentration) in TR-FRET dilution buffer (Life Technologies) was added. The plates were allowed to incubate at ambient temperature for 1 h before being read on the EnVision reader (Perkin Elmer).
as §3

TYK2 = TYK2 (Homo sapiens (Human), UniProt P29597); format: biochemical
TYK2, sequence (P29597 whole entry): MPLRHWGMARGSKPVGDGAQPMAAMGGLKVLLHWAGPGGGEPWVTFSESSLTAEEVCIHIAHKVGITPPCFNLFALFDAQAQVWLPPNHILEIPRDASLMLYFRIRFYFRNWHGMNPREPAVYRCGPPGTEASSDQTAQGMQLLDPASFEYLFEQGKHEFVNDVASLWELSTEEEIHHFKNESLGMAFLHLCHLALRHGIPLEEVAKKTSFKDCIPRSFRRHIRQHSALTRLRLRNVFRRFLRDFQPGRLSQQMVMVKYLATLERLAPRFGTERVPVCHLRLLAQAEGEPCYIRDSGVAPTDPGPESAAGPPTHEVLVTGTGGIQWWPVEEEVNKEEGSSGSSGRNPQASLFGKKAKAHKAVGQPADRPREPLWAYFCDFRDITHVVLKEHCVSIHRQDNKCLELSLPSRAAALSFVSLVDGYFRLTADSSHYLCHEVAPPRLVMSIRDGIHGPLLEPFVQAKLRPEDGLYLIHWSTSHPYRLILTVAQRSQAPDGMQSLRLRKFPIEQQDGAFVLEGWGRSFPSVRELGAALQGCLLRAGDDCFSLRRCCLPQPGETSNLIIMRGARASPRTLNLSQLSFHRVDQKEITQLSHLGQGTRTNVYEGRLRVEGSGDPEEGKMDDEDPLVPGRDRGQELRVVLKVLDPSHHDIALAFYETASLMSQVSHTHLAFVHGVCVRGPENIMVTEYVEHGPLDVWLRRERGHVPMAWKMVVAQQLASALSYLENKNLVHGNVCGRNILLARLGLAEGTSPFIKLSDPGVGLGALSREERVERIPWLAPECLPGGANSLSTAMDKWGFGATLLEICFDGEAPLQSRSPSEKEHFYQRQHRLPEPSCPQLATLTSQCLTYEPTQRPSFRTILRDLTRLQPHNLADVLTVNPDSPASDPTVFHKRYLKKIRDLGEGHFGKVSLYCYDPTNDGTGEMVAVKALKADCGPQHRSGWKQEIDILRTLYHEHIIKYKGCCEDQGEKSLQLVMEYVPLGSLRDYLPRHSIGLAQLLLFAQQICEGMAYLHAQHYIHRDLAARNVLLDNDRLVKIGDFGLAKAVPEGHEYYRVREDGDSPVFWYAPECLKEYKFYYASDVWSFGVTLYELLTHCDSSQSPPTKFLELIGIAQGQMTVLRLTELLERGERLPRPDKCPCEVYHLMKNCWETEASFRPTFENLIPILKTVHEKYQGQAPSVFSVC
Protocol: as §1, §2, §4, §3

[1] = system: IL-4 induced STAT6 phosphorylation in THP-1 human monocytic cells; settings: THP-1 cells
JAK2 = JAK2 (Homo sapiens (Human), UniProt O60674); format: biochemical
JAK2, sequence (O60674 whole entry): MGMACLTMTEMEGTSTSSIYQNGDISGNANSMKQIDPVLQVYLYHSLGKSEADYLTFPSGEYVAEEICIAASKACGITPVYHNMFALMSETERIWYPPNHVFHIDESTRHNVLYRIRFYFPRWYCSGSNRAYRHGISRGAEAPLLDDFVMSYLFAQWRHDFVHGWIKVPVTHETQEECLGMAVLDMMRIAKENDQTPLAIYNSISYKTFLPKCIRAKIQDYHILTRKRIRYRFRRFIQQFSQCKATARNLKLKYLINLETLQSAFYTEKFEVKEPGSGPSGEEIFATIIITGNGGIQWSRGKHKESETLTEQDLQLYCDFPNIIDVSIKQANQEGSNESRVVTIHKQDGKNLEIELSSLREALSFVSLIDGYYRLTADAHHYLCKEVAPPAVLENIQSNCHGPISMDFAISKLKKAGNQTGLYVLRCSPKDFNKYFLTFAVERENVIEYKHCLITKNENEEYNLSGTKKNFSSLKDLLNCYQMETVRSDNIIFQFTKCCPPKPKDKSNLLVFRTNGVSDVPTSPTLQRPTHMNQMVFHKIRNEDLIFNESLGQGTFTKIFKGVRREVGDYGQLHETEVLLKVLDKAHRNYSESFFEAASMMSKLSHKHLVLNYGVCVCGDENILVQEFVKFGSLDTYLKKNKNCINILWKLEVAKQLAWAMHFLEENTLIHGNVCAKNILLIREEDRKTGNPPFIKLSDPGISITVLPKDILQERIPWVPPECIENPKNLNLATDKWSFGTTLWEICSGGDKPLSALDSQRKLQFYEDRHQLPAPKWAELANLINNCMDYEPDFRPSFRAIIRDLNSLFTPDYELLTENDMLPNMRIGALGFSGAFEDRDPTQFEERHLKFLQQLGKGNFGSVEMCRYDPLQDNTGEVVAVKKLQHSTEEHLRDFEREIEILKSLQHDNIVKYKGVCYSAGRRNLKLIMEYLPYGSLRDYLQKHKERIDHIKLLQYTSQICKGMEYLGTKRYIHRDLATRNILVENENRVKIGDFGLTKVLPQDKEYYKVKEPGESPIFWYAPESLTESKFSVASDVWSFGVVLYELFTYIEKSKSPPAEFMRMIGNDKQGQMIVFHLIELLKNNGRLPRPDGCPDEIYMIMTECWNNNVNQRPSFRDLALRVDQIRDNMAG
Protocol: as §1, §2, §4, §3

[2] = system: IL-13 induced STAT6 phosphorylation in BEAS-2B human lung epithelial cells; settings: BEAS-2B cells
[3] = system: oxazolone-induced colitis; experiment: Mouse model of oxazolone-induced colitis; format: in vivo, BALB/C mice; settings: mice, PO, 1, 3, and/or 10 mg/kg BID (doses up to 10 mg/kg BID)
Protocol: Assay 7: Mouse Model of Oxazalone-Induced Colitis
Oxazolone-induced colitis is an experimental model that has a histological resemblance to human ulcerative colitis (Heller et al. Immunology, 2002, 17, 629-638). Adult BALB/C mice from Harlan were used in the assay. On day 1, animals were lightly anesthetized with isoflurane and the hairs between the shoulder were carefully removed before oxazolone (4%, 150 μL, 4:1 acetone:olive oil formulation) or vehicle solution was slowly applied for skin sensitization. Seven days after skin sensitization, the mice were fasted overnight, anesthetized with isoflurane inhalation, and a 1 mL syringe equipped with a 3.5-F catheter, filled with oxazolone solution, was inserted carefully about 4 cm into the colon of the mouse. Following insertion, 50 μL of the oxazolone solution (1%, 1:1 ethanol:water formulation) was injected very slowly (over 30 sec using an injection pump) into the colon. The catheter was removed and the mice were held vertically (head down) for 2 min to ensure that the entire oxazolone solution remained inside the colon. Drug treatment (PO, BID or TID) or vehicle was initiated a day prior to the oxazolone intrarectal (IR) challenge. Two-day post oxazolone intrarectal challenge, the Disease Activity Index (DAI) was assessed by treatment-blinded experimenters for each mouse according to the criteria score: stool consistency score (0, normal; 2, loose; 4, diarrhea), gross bleeding score (0, absence; 2, blood tinged; 4, presence), and weight loss score (0, none; 1, 1%-5%; 2, 5%-10%; 3, 10%-20%; 4, more than 20%); DAI=average of (stool consistency score+gross bleeding score+weight loss score).
Selected compounds of the invention were tested in the assay. Efficacy in the model is evidenced by a decrease in DAI score as compared with the score from vehicle treated animals.

[4] = system: splenic NK, B and T cells; experiment: Immunosuppression effects in mouse splenic natural killer (NK) cells; format: in vivo, Balb/C mice; settings: mice, three days
Protocol: Adult male Balb/C mice (12-14 weeks of age) from Harlan were used for the study. […] Spleens were harvested 1 or 2 h post last dose and crushed immediately for cell subtype staining. Prior to fixation, fluorophore-labelled antibodies for CD19 (FITC; B cells), CD3e (PE; pan T cells) and DX5 (APC; NK cells) were incubated with splenocyte samples from each animal to allow for simultaneous, multiple subtype % analysis on the flow cytometer. The number of total spleen cells for each animal was measured by Scepter™ 2.0 Handheld Automated Cell Counter. The absolute number of lymphocyte subtype population (e.g., splenic B, T and NK cells) was calculated from the percentage of each subtype times total spleen cells for each animal. A one way ANOVA, with Dunnett's post hoc test, was used to compare the splenic lymphocytes number of the vehicle and test compound groups. The a level was set at p<0.05. Data were presented as the mean±SEM for each group.

JAK3, sequence (P52333 whole entry): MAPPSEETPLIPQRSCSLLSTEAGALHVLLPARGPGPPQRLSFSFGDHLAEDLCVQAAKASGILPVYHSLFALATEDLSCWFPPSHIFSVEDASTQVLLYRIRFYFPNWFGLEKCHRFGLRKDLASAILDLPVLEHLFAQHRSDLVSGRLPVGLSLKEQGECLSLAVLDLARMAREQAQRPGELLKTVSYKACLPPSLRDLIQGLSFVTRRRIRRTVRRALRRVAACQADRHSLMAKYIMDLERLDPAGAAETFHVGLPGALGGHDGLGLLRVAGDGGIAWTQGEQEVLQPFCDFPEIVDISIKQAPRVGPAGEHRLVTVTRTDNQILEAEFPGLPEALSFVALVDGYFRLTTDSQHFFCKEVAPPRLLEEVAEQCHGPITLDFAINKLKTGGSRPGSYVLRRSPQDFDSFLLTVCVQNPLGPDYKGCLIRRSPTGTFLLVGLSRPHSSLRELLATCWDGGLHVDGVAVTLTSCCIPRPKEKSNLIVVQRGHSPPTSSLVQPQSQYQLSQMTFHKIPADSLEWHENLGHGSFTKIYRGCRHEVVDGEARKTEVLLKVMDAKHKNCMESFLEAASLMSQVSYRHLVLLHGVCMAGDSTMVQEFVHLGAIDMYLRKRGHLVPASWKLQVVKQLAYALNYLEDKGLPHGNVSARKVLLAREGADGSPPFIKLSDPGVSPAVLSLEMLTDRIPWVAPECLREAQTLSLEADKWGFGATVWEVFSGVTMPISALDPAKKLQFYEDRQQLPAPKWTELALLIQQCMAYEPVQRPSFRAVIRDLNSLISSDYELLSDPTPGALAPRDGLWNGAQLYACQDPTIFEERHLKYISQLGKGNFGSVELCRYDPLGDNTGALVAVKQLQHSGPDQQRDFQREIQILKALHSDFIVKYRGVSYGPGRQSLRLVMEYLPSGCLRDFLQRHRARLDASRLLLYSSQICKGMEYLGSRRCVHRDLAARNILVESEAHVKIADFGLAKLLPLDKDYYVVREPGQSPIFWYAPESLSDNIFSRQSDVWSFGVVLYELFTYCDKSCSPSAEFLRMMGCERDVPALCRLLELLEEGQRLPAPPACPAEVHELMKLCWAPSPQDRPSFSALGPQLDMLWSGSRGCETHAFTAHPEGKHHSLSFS

Structure (SMILES)	JAK 3 (pKi) (JAK3)	JAK 1 (pKi) (JAK1)	Tyk 2 (pKi) (TYK2)	THP-1 IL4 pIC50 [1]	JAK 2 (pKi) (JAK2)	BEAS2B pIC50 [2]	decrease in DAI score as compared with vehicle treated animals [3]	splenic NK cell counts ([4]; 30 mg/kg PO BID)	treatment effect on B and T cell populations ([4]; PO BID)
Cc1cc(Nc2cc3ncccc3c(N[C@@H]3C[C@H]4CC[C@@H](C3)N4C(=O)C3(C(F)(F)F)CC3)n2)n[nH]1 [Example 2-7]	C (C represents a pKi value between 7 and 9 (Ki between 100 nM and 1 nM))	B (B represents a pKi value between 9 and 10 (Ki between 1 nM and 0.1 nM))	C (C represents a pKi value between 7 and 9 (Ki between 100 nM and 1 nM))	B (B represents a pEC50 value between 6.7 and 7.5 (EC50 between 200 nM and 32 nM))					
Cc1cc(Nc2cc3ncccc3c(N[C@@H]3C[C@H]4CC[C@@H](C3)N4C(=O)C3(C#N)CC3)n2)n[nH]1 [Example 2-8]		B (B represents a pKi value between 9 and 10 (Ki between 1 nM and 0.1 nM))	C (C represents a pKi value between 7 and 9 (Ki between 100 nM and 1 nM))	B (B represents a pEC50 value between 6.7 and 7.5 (EC50 between 200 nM and 32 nM))	B (B represents a pKi value between 9 and 10 (Ki between 1 nM and 0.1 nM))				
Cc1cc(Nc2cc3ncccc3c(N[C@@H]3C[C@H]4CCC[C@@H](C3)N4C(=O)C3(C(F)(F)F)CC3)n2)n[nH]1 [Example 2-19]	C (C represents a pKi value between 7 and 9 (Ki between 100 nM and 1 nM))	B (B represents a pKi value between 9 and 10 (Ki between 1 nM and 0.1 nM))	B (B represents a pKi value between 9 and 10 (Ki between 1 nM and 0.1 nM))	A (A represents a pEC50 value ≥7.5 (EC50≤32 nM))					
Cc1cc(Nc2cc3ncccc3c(N[C@@H]3C[C@H]4CCC[C@@H](C3)N4C(=O)C3(C#N)CC3)n2)n[nH]1 [Example 2-20]		B (B represents a pKi value between 9 and 10 (Ki between 1 nM and 0.1 nM))	C (C represents a pKi value between 7 and 9 (Ki between 100 nM and 1 nM))	A (A represents a pEC50 value ≥7.5 (EC50≤32 nM))	B (B represents a pKi value between 9 and 10 (Ki between 1 nM and 0.1 nM))	A (A represents a pEC50 value ≥7.5 (EC50≤32 nM))			
Cc1cc(Nc2cc3ncccc3c(N[C@@H]3C[C@H]4CCC[C@@H](C3)N4C(=O)C(C)(C)CO)n2)n[nH]1 [Example 2-22]						A (A represents a pEC50 value ≥7.5 (EC50≤32 nM))	did not exhibit a statistically significant decrease		
Cc1cc(Nc2cc3ncccc3c(N[C@@H]3C[C@H]4CCC[C@@H](C3)N4C(=O)Cc3ccccc3)n2)n[nH]1 [Example 2-24]				A (A represents a pEC50 value ≥7.5 (EC50≤32 nM))		A (A represents a pEC50 value ≥7.5 (EC50≤32 nM))	did not exhibit a statistically significant decrease		
Cc1cc(Nc2cc3ncccc3c(N[C@@H]3C[C@H]4CC[C@@H](C3)N4S(=O)(=O)CC(C)C)n2)n[nH]1 [Example 4-3]				A (A represents a pEC50 value ≥7.5 (EC50≤32 nM))		A (A represents a pEC50 value ≥7.5 (EC50≤32 nM))	did not exhibit a statistically significant decrease		
Cc1cc(Nc2cc3ncccc3c(N[C@@H]3C[C@H]4CC[C@@H](C3)N4S(=O)(=O)Cc3ccccc3)n2)n[nH]1 [Example 4-13]						A (A represents a pEC50 value ≥7.5 (EC50≤32 nM))	did not exhibit a statistically significant decrease		
Cc1cc(Nc2cc3ncccc3c(N[C@@H]3C[C@H]4CCC[C@@H](C3)N4S(=O)(=O)C3CC3)n2)n[nH]1 [Example 4-18]				A (A represents a pEC50 value ≥7.5 (EC50≤32 nM))		A (A represents a pEC50 value ≥7.5 (EC50≤32 nM))	did not exhibit a statistically significant decrease		
COCCS(=O)(=O)N1[C@@H]2CCC[C@H]1C[C@H](Nc1nc(Nc3cc(C)[nH]n3)cc3ncccc13)C2 [Example 4-19]				A (A represents a pEC50 value ≥7.5 (EC50≤32 nM))		A (A represents a pEC50 value ≥7.5 (EC50≤32 nM))	did not exhibit a statistically significant decrease		
Cc1cc(Nc2cc3ncccc3c(N[C@@H]3C[C@H]4CCC[C@@H](C3)N4S(=O)(=O)CC3CC3)n2)n[nH]1 [Example 4-23]				A (A represents a pEC50 value ≥7.5 (EC50≤32 nM))		A (A represents a pEC50 value ≥7.5 (EC50≤32 nM))	did not exhibit a statistically significant decrease		
Cc1cnc2cc(Nc3cc(C)[nH]n3)nc(N[C@@H]3C[C@H]4CC[C@@H](C3)N4S(C)(=O)=O)c2c1 [Example 6-5]	C (C represents a pKi value between 7 and 9 (Ki between 100 nM and 1 nM))	B (B represents a pKi value between 9 and 10 (Ki between 1 nM and 0.1 nM))	B (B represents a pKi value between 9 and 10 (Ki between 1 nM and 0.1 nM))	A (A represents a pEC50 value ≥7.5 (EC50≤32 nM))		A (A represents a pEC50 value ≥7.5 (EC50≤32 nM))			
Cc1cnc2cc(Nc3cc(C)[nH]n3)nc(N[C@@H]3C[C@H]4CCC[C@@H](C3)N4S(C)(=O)=O)c2c1 [Example 6-8]	B (B represents a pKi value between 9 and 10 (Ki between 1 nM and 0.1 nM))	B (B represents a pKi value between 9 and 10 (Ki between 1 nM and 0.1 nM))	B (B represents a pKi value between 9 and 10 (Ki between 1 nM and 0.1 nM))	A (A represents a pEC50 value ≥7.5 (EC50≤32 nM))		A (A represents a pEC50 value ≥7.5 (EC50≤32 nM))			
COC(=O)c1cnc2cc(Nc3cc(C)[nH]n3)nc(N[C@@H]3C[C@H]4CC[C@@H](C3)N4CCCF)c2c1 [Example 6-44]		B (B represents a pKi value between 9 and 10 (Ki between 1 nM and 0.1 nM))							
COC(=O)c1cnc2cc(Nc3cc(C)[nH]n3)nc(N[C@@H]3C[C@H]4CCC[C@@H](C3)N4C3CCOC(=O)C3)c2c1 (some centres unmarked) [Example 6-48]	C (C represents a pKi value between 7 and 9 (Ki between 100 nM and 1 nM))	B (B represents a pKi value between 9 and 10 (Ki between 1 nM and 0.1 nM))	C (C represents a pKi value between 7 and 9 (Ki between 100 nM and 1 nM))	B (B represents a pEC50 value between 6.7 and 7.5 (EC50 between 200 nM and 32 nM))					
C[C@@H]1CCN(C(=O)CC#N)C[C@@H]1N(C)c1ncnc2[nH]ccc12 [tofacitinib, reference compound]								significantly decreased	No treatment effect
